Experimental data as given in US9351944B1, “Malodor eliminating compositions” (TAKASAGO INTERNATIONAL CORPORATION, priority 2008, dated 2016).

What was measured:
[1] = Suppression of methyl mercaptan (Example 12, GC-PFPD); settings: test material 0.2%, malodor material 10 ppm, room temperature 2 hours, triplicate
Method: 100 μl of 0.01%(w/v) of test malodor material in ethanol, 2 μl of neat flavor oil and 900 μl of deionized water were added into a 4 ml vial and left to sit at room temperature for 2 hours. As a control, ethanol was added instead of the malodor reducing compound. The final concentration of test material and malodor material are 0.2% and 10 ppmm, respectively. 3 ml of ethanol was added into the resulting vial and the thiol level was analyzed using GC-PFPD as described above. Each material was tested in triplicate. Malodor suppression was calculated as described in the example 1 above.

[2] = Methyl mercaptan chemical suppression by Group A and Group B compounds (GC-PFPD); settings: test material 200 ppm, malodor material 10 ppm, room temperature 2 hours, ethanol/deionized water
Method: 2 μl of 0.5%(w/v) of sodium methoxide in deionized water, 20 μl of 1% (w/v) test malodor eliminating material in ethanol, 80 μl of ethanol, and 900 μl of deionized water were added into a 2 ml GC vial, left to sit at room temperature for 2 hours, and analyzed using Multipurpose sampler-GC-PFPD (Gas Chromatography-Pulsed Flame Photometric Detector) (GC-PFPD)MPS2 (Gerstel)—GC; 6890N (Agilent)—PFPD; model 5380 (OI Analytical). As a control, ethanol was added instead of test malodor eliminating materials. The final concentration of test OE material and malodor material are 200 ppm and 10 ppmm, respectively. Malodor suppression was calculated as follows: Malodor Suppression (%)=(GC area of control sample−GC area of test_sample)/GC area of control sample×100

## CC=Cc1ccc(OC)cc1 [ANETHOL NF, anethol]
[1]
  methyl mercaptan suppression (%): <20%

## O=C1CCCCCCCCCCCCCCO1 [CYCLOPENTADECANOLIDE, cyclopentadecanolide]
[1]
  methyl mercaptan suppression (%): <20%

## CCCCCC1CCCC(=O)O1 (stereo not shown) [DECALACTONE DELTA]
[1]
  methyl mercaptan suppression (%): <20%

## CCCCCCC/C=C/C=O [DECENAL, TRANS-2,]
[2]
  methyl mercaptan suppression (%): 90%

## CCCCCCCC1CCCC(=O)O1 (stereo not shown) [DODECALACTONE DELTA, dodecalactone delta]
[1]
  methyl mercaptan suppression (%): <20%

## CCCCCCCCC/C=C/C=O [DODECENAL, TRANS-2,]
[2]
  methyl mercaptan suppression (%): 53%

## CCOC(=O)C(C)CC (stereo not shown) [ETHYL 2-METHYLBUTYRATE, ethyl 2-methylbutyrate]
[1]
  methyl mercaptan suppression (%): <20%

## CCOC(C)=O [ETHYL ACETATE, ethyl acetate]
[1]
  methyl mercaptan suppression (%): <20%

## CCCC(=O)OCC [ETHYL BUTYRATE, ethyl butyrate]
[1]
  methyl mercaptan suppression (%): <20%

## CC/C=C/C=C/C=O [HEPTADIENAL, TRANS-2-TRANS-4]
[2]
  methyl mercaptan suppression (%): 44%

## CCCC/C=C/C=O [HEPTENAL-TRANS-2]
[2]
  methyl mercaptan suppression (%): 82%

## CCC/C=C/CO [HEXENOL, TRANS-2-, trans-2-hexenol]
[2]
  methyl mercaptan suppression (%): 29%

## CC/C=C\CCOC(=O)CCC [HEXENYL BUTY, CIS-3,]
[2]
  methyl mercaptan suppression (%): 22%

## CC/C=C\CCOC(=O)CC(C)C [HEXENYL ISO VAL, CIS-3,]
[2]
  methyl mercaptan suppression (%): 24%

## CC/C=C\CCOC(=O)CC [HEXENYL PROP, CIS-3,]
[2]
  methyl mercaptan suppression (%): 32%

## CCC/C=C/COC(C)=O [HEXENYL-TRANS-2 ACETATE]
[2]
  methyl mercaptan suppression (%): 35%

## CC(C)CCOC(=O)C=Cc1ccccc1 [ISOAMYL CINNAMATE]
[2]
  methyl mercaptan suppression (%): 10%

## CC=Cc1ccc(O)c(OC)c1 [ISOEUGENOL, isoeugenol]
[2]
  methyl mercaptan suppression (%): 15%

## CC1=CC(=O)CC(C)(C)C1 [ISOPHORONE]
[2]
  methyl mercaptan suppression (%): 31%

## CC(C)OC(=O)C=Cc1ccccc1 [ISOPROPYL CINNAMATE]
[2]
  methyl mercaptan suppression (%): 21%

## CC/C=C\CC1=C(C)CCC1=O [JASMONE, CIS]
[2]
  methyl mercaptan suppression (%): 32%

## CC(C)=CCCC(C)C=O (stereo not shown) [MELONAL]
[1]
  methyl mercaptan suppression (%): <20%

## CC1CCC(C(C)C)C(O)C1 (stereo not shown) [MENTHOL NATURAL, menthol]
[1]
  methyl mercaptan suppression (%): <20%

## CC(=O)OC1CC(C)CCC1C(C)C (stereo not shown) [MENTHYL ACETATE]
[1]
  methyl mercaptan suppression (%): <20%

## CC(C)CC=C(C=O)c1ccccc1 [METH 2-PHEN 2-HEXENAL, 5,]
[2]
  methyl mercaptan suppression (%): 59%

## COC(=O)C=Cc1ccccc1 [METH CINNAMATE, methyl cinnamate]
[2]
  methyl mercaptan suppression (%): 36%

## CCCCCCCC(C)=O [METHYL HEPTYL KETONE]
[1]
  methyl mercaptan suppression (%): <20%

## COC(=O)c1ccccc1O [METHYL SALICYLATE EXT PURE, METHYL SALICYLATE]
[1]
  methyl mercaptan suppression (%): <20%

## CC/C=C\CC/C=C/C=O [NONADIEN-1-AL, TRANS-2, CIS-6,]
[2]
  methyl mercaptan suppression (%): 74%

## CCCC/C=C/C=C/C=O [NONADIENAL-TRANS-2-TRANS-4, trans-2-trans-4-nonadien-1-al]
[2]
  methyl mercaptan suppression (%): 42%

## CCCCCC/C=C/C=O [NONENAL, TRANS-2,]
[2]
  methyl mercaptan suppression (%): 86%

## CC/C=C\CCCCCO [NONENOL, CIS 6]
[2]
  methyl mercaptan suppression (%): 22%

## C=CC(O)CCCCC (stereo not shown) [OCTEN-1 3-OL]
[2]
  methyl mercaptan suppression (%): 19%

## CCCCC/C=C/C=O [OCTENAL TRANS-2]
[2]
  methyl mercaptan suppression (%): 82%

## OCCc1ccccc1 [PHENYL ETHYL ALCOHOL-BETA, phenethyl alcohol beta]
[1]
  methyl mercaptan suppression (%): <20%

## CCC(=O)OCCc1ccccc1 [PHENYLETHYL PROPIONATE, phenyl ethyl propionate]
[1]
  methyl mercaptan suppression (%): <20%

## ISO JASMONE
[2]
  methyl mercaptan suppression (%): 31%
